From patent publication EP2876156A1 (COMMISSARIAT A L'ENERGIE ATOMIQUE ET AUX ENERGIES …, priority 2013, dated 2015)
Read-outs that look alike come from different tables or passages of the source.

What was measured:
Assay type in all cases: biochemical
ENZ1 SEQ ID N°1 = target: T1, ENZ1 SEQ ID N°1 (Catenulispora acidiphila, UniProt C7QJ42); experiment: Substrate selectivity screening of hydroxylase (conversion by HPLC after Fmoc-Cl derivatization)
T1 construct: His6 (hexahistidine, inserted after the initial methionine) (N); made in house; host or cells: E. coli BL21(DE3) plysE
T1 sequence (C7QJ42 1-358): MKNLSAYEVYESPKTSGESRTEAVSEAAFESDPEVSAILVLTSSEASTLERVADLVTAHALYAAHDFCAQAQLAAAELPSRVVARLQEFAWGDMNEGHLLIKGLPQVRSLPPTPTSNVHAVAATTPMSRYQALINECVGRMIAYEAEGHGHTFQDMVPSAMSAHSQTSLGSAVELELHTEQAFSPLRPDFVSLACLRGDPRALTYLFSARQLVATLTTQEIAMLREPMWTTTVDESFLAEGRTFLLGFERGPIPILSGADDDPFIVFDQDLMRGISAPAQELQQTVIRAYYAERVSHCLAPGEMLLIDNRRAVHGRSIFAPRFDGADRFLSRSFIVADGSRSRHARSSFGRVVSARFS
Experimental: (§1) Enzymatic reaction medium (0.2 µmole, leq.), borate buffer 0,2M pH 7.7 (80 µL) and Fmoc-Cl solution7.5 mM in acetone (100 µL, 0.75 µmole, 3.75 eq) were hand shaked in a closed 1.50 mL eppendorf for one minute. The aqueous layer was extracted with petroleum ether (3*1 mL) to eliminate excess of Fmoc-Cl. 70 µL of the aqueous phase were withdrawn, diluted with 70 µL of acetonitrile and injected into the HPLC. For substrates with two amine functions, 100 µL of Fmoc-Cl solution 15 mM were used.
(§2) Conditions for HPLC analysis: Atlantis® T3 (3 µm 4.5*150 mm) at 35°C with the gradient 50-86% eluent B (MeCN + 0.1% TFA) and eluent A (H2O + 0.1% TFA) in 20 min at 1 mL/min.
(§3) Enzymes (0.08 mg/mL) were screened against substrates (molar ratio α-ketoglutarate/substrate 15/10) in Hepes buffer 50 mM pH 7,5, with Mohr's salt at 1mM and without sodium ascorbate, at room temperature for three hours. The potential conversions of the substrates were determined by HPLC after Fmoc-Cl derivatization as section III here above.

ENZ4 SEQ ID NO:4 = target: T2, ENZ4 SEQ ID NO:4 (Catenulispora acidiphila, UniProt C7Q942); experiment: as above
T2 construct: His6 (hexahistidine, inserted after the initial methionine) (N); made in house; host or cells: E. coli BL21(DE3) plysE
T2 sequence (C7Q942 1-343): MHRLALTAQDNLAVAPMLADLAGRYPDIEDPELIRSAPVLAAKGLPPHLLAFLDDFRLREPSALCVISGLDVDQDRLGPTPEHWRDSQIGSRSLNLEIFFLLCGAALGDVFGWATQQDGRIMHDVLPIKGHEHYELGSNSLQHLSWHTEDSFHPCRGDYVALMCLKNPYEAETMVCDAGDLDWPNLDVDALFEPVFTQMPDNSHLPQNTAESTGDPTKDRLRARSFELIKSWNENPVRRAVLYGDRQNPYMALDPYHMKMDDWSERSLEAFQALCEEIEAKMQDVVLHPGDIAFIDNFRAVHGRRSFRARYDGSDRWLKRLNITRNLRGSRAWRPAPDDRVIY
Experimental: as §1, §2, §3

ENZ2 SEQ ID NO:2 = target: T3, ENZ2 SEQ ID NO:2 (Flavobacterium johnsoniae, UniProt A5FF23)
T3 construct: His6 (hexahistidine, inserted after the initial methionine) (N); made in house; host or cells: E. coli BL21(DE3) plysE
T3 sequence (A5FF23 1-370): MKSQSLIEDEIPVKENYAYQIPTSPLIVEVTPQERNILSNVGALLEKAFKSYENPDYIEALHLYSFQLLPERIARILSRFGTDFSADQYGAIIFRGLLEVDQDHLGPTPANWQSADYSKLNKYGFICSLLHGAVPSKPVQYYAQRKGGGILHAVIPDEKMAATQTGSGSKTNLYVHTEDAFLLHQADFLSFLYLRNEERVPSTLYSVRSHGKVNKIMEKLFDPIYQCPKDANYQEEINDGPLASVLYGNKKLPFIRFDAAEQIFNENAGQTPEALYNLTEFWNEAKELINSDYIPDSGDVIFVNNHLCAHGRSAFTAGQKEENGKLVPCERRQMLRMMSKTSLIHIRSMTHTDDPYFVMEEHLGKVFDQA
Experimental: as §1, §2, §3

ENZ3 SEQ ID NO:3 = target: T4, ENZ3 SEQ ID NO:3 (Chitinophaga pinensis, UniProt C7PLM6)
T4 construct: His6 (hexahistidine, inserted after the initial methionine) (N); made in house; host or cells: E. coli BL21(DE3) plysE
T4 sequence (C7PLM6 1-382): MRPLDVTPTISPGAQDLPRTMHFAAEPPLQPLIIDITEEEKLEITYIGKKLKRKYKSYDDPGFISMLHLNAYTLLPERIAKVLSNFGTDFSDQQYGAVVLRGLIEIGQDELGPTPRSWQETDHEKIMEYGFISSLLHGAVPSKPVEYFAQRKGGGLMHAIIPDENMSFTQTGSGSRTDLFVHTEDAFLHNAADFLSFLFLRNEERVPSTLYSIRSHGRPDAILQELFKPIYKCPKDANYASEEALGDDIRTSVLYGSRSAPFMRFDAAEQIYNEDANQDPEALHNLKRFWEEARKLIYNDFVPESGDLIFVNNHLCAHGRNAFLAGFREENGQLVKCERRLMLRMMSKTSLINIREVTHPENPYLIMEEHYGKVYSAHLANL
Experimental: as §1, §2, §3

[1] = enzyme 0.08 mg/mL, molar ratio α-ketoglutarate/substrate 15/10, Hepes buffer 50 mM pH 7,5, Mohr's salt 1mM, without sodium ascorbate, room temperature, three hours

| Compound | potential conversions of the substrates, ENZ1 SEQ ID N°1 (ENZ1 SEQ ID N°1; [1]) | potential conversions of the substrates, ENZ4 SEQ ID NO:4 (ENZ4 SEQ ID NO:4; [1]) | potential conversions of the substrates, ENZ2 SEQ ID NO:2 (ENZ2 SEQ ID NO:2; [1]) | potential conversions of the substrates, ENZ3 SEQ ID NO:3 (ENZ3 SEQ ID NO:3; [1]) | potential conversions of the substrates, ENZ1 SEQ ID N°1 (ENZ1 SEQ ID N°1; pH 7) | potential conversions of the substrates, ENZ4 SEQ ID NO:4 (ENZ4 SEQ ID NO:4; pH 7) | potential conversions of the substrates, ENZ2 SEQ ID NO:2 (ENZ2 SEQ ID NO:2; pH 7) | potential conversions of the substrates, ENZ3 SEQ ID NO:3 (ENZ3 SEQ ID NO:3; pH 7) |
| --- | --- | --- | --- | --- | --- | --- | --- | --- |
| CNCCCC[C@H](N)C(=O)O [Nε-Me-L-lysine] | negative | negative | negative | negative |  |  |  |  |
| COC(=O)[C@@H](N)CCCN [L-ornithine methyl ester] | negative | negative | negative | negative |  |  |  |  |
| CCCCCC(N)C(=O)O (stereo not drawn) [2-aminoheptanoic acid] | negative | negative | negative | negative |  |  |  |  |
| NC(=O)NCCC[C@H](N)C(=O)O [L-citrulline] | negative | negative | negative | negative |  |  |  |  |
| N=C(N)NCCC[C@@H](N)C(=O)O [D-arginine] | negative | negative | negative | negative |  |  |  |  |
| NCCC[C@H](O)[C@H](N)C(=O)O [(3S)- hydroxy-L-lysine] |  | negative | positive | positive |  |  |  |  |
| NCCSC[C@H](N)C(=O)O [Thia-L-lysine] | negative | negative | positive | positive |  |  |  |  |
| NCCCC[C@H](NC(=O)[C@@H](N)CCCCN)C(=O)O [L-Lysil-L-lysine] | negative | negative | negative | negative |  |  |  |  |
| NCCCCCN [Cadaverine] | negative | negative | negative | negative |  |  |  |  |
| NCCCC[C@@H](N)C(=O)O [D-lysine] | negative | negative | negative | negative |  |  |  |  |
| NCCCCCC(=O)O [6-aminohexanoic acid] | negative | negative | negative | negative |  |  |  |  |
| COC(=O)[C@@H](N)CCCNC(=N)N [L-arginine methyl ester] | negative | negative | negative | negative |  |  |  |  |
| NCCCCN [Putrescine] |  |  |  |  | negative | negative | negative | negative |
| C[N+](C)(C)CCCC[C@H](N)C(=O)O [Nε-Me3-L-lysine] | negative | negative | negative | negative |  |  |  |  |
| CC(=O)N[C@@H](CCCN)C(=O)O [Nα-acetyl-L-ornithine] | negative | negative | negative | negative |  |  |  |  |
| CC(=O)N[C@@H](CCCNC(=N)N)C(=O)O [Nα-acetyl-L-arginine] | negative | negative | negative | negative |  |  |  |  |
| COC(=O)[C@@H](N)CCCCN [L-lysine methyl ester] | negative | negative | negative | negative |  |  |  |  |
| N[C@H]1CCCCNC1=O [L-(-)-α-Amino-ε-caprolactam] | negative | negative | negative | negative |  |  |  |  |
| NCCC[C@H](N)CC(=O)O [β-L-lysine] | negative | negative | negative | negative |  |  |  |  |
| CC(=O)N[C@@H](CCCCN)C(=O)O [Nα-acetyl-L-lysine] | negative | negative | negative | negative |  |  |  |  |
| NC[C@H](O)CC[C@H](N)C(=O)O [(5R)- hydroxy-L-lysine] | positive | negative | positive | positive |  |  |  |  |
| NC(CCCC(=O)O)C(=O)O (stereo not drawn) [2-aminoadipic acid] | negative | negative | negative | negative |  |  |  |  |
